In the NIST ThermoML archive (doi:10.1021/je5008795):
± gives the expanded uncertainty stated by the source. One block for each molecule: values may come before it.

Legend:
[1] = refractive index (Na D-line) (dimensionless); xn = mol fraction of the nth substance listed; settings: 298.15 K, 101 kPa, Liquid, Standard Abbe refractometry
[2] = xn = mol fraction of the nth substance listed; settings: 298.15 K, 101 kPa, Liquid, Vibrating tube method
[3] = Molar enthalpy of transition or fusion; settings: Crystal; DSC
[4] = for Normal melting temperature: DTA; for vapor or sublimation pressure: Transpiration method

Compound: c1ccccc1 [benzene] + Brc1ccc(Br)cc1
- refractive index ([1]; x2 = 0): 1.49755 ± 0.00031
- mass density ([2]; x2 = 0): 873.671 ± 0.19 kg/m3

Compound: Brc1c2ccccc2c(Br)c2ccccc12 [9,10-dibromoanthracene]
- Molar enthalpy of transition or fusion [3]: 6.86 ± 0.167 kcal/mol
- Normal melting temperature ([4]; Crystal): 224.7 ± 0.4 °C

Compound: c1ccccc1 [benzene] + Brc1ccc(-c2ccc(Br)cc2)cc1
- refractive index ([1]; x2 = 0): 1.49755 ± 0.00031
- mass density ([2]; x2 = 0): 873.633 ± 0.22 kg/m3

Compound: Brc1ccc(Br)cc1 [1,4-dibromobenzene] + c1ccccc1
- refractive index ([1]; x1 = 0.0018): 1.49781 ± 0.00031
- refractive index ([1]; x1 = 0.00185): 1.49784 ± 0.00031
- refractive index ([1]; x1 = 0.0025): 1.49795 ± 0.00031
- refractive index ([1]; x1 = 0.0033): 1.49808 ± 0.00031
- mass density ([2]; x1 = 0.0018): 876.211 ± 0.19 kg/m3
- mass density ([2]; x1 = 0.00185): 876.342 ± 0.19 kg/m3
- mass density ([2]; x1 = 0.0025): 877.295 ± 0.19 kg/m3
- mass density ([2]; x1 = 0.0033): 878.419 ± 0.19 kg/m3

Compound: c1ccccc1 [benzene] + Brc1ccc(-c2ccccc2)cc1
- refractive index ([1]; x2 = 0): 1.49755 ± 0.00031
- mass density ([2]; x2 = 0): 873.616 ± 0.16 kg/m3

Compound: c1ccccc1 [benzene] + Clc1ccc(Br)cc1
- refractive index ([1]; x2 = 0): 1.49755 ± 0.00031
- mass density ([2]; x2 = 0): 873.613 ± 0.16 kg/m3

- refractive index ([1]; x1 = 0.00087): 1.49786 ± 0.00031
- refractive index ([1]; x1 = 0.00189): 1.4982 ± 0.00031
- refractive index ([1]; x1 = 0.00208): 1.49828 ± 0.00031
- refractive index ([1]; x1 = 0.00321): 1.49872 ± 0.00031
- mass density ([2]; x1 = 0.00087): 875.112 ± 0.21 kg/m3
- mass density ([2]; x1 = 0.00189): 876.792 ± 0.23 kg/m3
- mass density ([2]; x1 = 0.00208): 877.158 ± 0.23 kg/m3
- mass density ([2]; x1 = 0.00321): 879.019 ± 0.21 kg/m3
Compound: Brc1ccc(Br)c2ccccc12 [1,4-dibromonaphthalene] + c1ccccc1

Compound: Clc1ccc(Br)cc1 [1-bromo-4-chlorobenzene] + c1ccccc1
- refractive index ([1]; x1 = 0.00231): 1.49779 ± 0.00031
- refractive index ([1]; x1 = 0.00253): 1.49781 ± 0.00031
- refractive index ([1]; x1 = 0.00268): 1.49782 ± 0.00031
- mass density ([2]; x1 = 0.00231): 875.875 ± 0.16 kg/m3
- mass density ([2]; x1 = 0.00253): 876.093 ± 0.16 kg/m3
- mass density ([2]; x1 = 0.00268): 876.25 ± 0.16 kg/m3

- Molar enthalpy of transition or fusion [3]: 5.04 ± 0.12 kcal/mol
- Normal melting temperature ([4]; Crystal): 80.0 ± 0.9 °C
Compound: Brc1ccc(Br)c2ccccc12 [1,4-dibromonaphthalene]

- refractive index ([1]; x1 = 0.00278): 1.49816 ± 0.00031
- refractive index ([1]; x1 = 0.00365): 1.49829 ± 0.00031
- refractive index ([1]; x1 = 0.00738): 1.49882 ± 0.00031
- refractive index ([1]; x1 = 0.01251): 1.49961 ± 0.00031
- mass density ([2]; x1 = 0.00278): 877.563 ± 0.19 kg/m3
- mass density ([2]; x1 = 0.00365): 878.834 ± 0.19 kg/m3
- mass density ([2]; x1 = 0.00738): 884.292 ± 0.19 kg/m3
- mass density ([2]; x1 = 0.01251): 891.807 ± 0.19 kg/m3
Compound: Brc1ccccc1Br [1,2-dibromobenzene] + c1ccccc1

Compound: Clc1c2ccccc2c(Cl)c2ccccc12 [9,10-dichloroanthracene]
- Molar enthalpy of transition or fusion [3]: 6 ± 0.191 kcal/mol
- Normal melting temperature ([4]; Crystal): 213.5 ± 0.5 °C

Compound: ClC(Cl)(Cl)Cl [tetrachloromethane] + Clc1c(Cl)c(Cl)c(Cl)c(Cl)c1Cl
- refractive index ([1]; x2 = 0): 1.45715 ± 0.00031
- mass density ([2]; x2 = 0): 1584.26 ± 0.27 kg/m3

- Molar enthalpy of transition or fusion [3]: 5.26 ± 0.12 kcal/mol
- Normal melting temperature ([4]; Crystal): 103.5 ± 2.2 °C
Compound: Clc1c2ccccc2cc2ccccc12 [9-chloroanthracene]

- vapor or sublimation pressure ([4]; 290.3 K, Liquid): 0.01251 ± 0.00088 kPa
- vapor or sublimation pressure ([4]; 292.4 K, Liquid): 0.01408 ± 0.001 kPa
- vapor or sublimation pressure ([4]; 292.5 K, Liquid): 0.01451 ± 0.001 kPa
- vapor or sublimation pressure ([4]; 295.8 K, Liquid): 0.01802 ± 0.0013 kPa
- vapor or sublimation pressure ([4]; 298.2 K, Liquid): 0.02158 ± 0.0015 kPa
- vapor or sublimation pressure ([4]; 301.2 K, Liquid): 0.02661 ± 0.0019 kPa
- vapor or sublimation pressure ([4]; 304.2 K, Liquid): 0.03482 ± 0.0025 kPa
- vapor or sublimation pressure ([4]; 307.3 K, Liquid): 0.04115 ± 0.0029 kPa
- vapor or sublimation pressure ([4]; 310.2 K, Liquid): 0.05236 ± 0.0037 kPa
- vapor or sublimation pressure ([4]; 313.2 K, Liquid): 0.06399 ± 0.0045 kPa
- vapor or sublimation pressure ([4]; 316.3 K, Liquid): 0.07736 ± 0.0055 kPa
- vapor or sublimation pressure ([4]; 319.3 K, Liquid): 0.09284 ± 0.0065 kPa
- vapor or sublimation pressure ([4]; 320.6 K, Liquid): 0.09686 ± 0.0068 kPa
- vapor or sublimation pressure ([4]; 322.1 K, Liquid): 0.1075 ± 0.0076 kPa
- vapor or sublimation pressure ([4]; 325.2 K, Liquid): 0.1324 ± 0.0094 kPa
- vapor or sublimation pressure ([4]; 325.3 K, Liquid): 0.135 ± 0.0095 kPa
- vapor or sublimation pressure ([4]; 328.2 K, Liquid): 0.1579 ± 0.011 kPa
Compound: Brc1ccccc1Br [1,2-dibromobenzene]

Compound: c1ccccc1 [benzene] + Brc1ccc(Br)c2ccccc12
- refractive index ([1]; x2 = 0): 1.49755 ± 0.00031
- mass density ([2]; x2 = 0): 873.652 ± 0.21 kg/m3

Compound: Brc1ccc(-c2ccccc2)cc1 [4-bromo-1,1'-biphenyl]
- Molar enthalpy of transition or fusion [3]: 3.9 ± 0.12 kcal/mol
- vapor or sublimation pressure ([4]; 303.2 K, Crystal): 9e-05 ± 1e-05 kPa
- vapor or sublimation pressure ([4]; 308.2 K, Crystal): 0.00016 ± 1e-05 kPa
- vapor or sublimation pressure ([4]; 313 K, Crystal): 0.00027 ± 2e-05 kPa
- vapor or sublimation pressure ([4]; 318.3 K, Crystal): 0.00048 ± 4e-05 kPa
- vapor or sublimation pressure ([4]; 323.4 K, Crystal): 0.00083 ± 6e-05 kPa
- vapor or sublimation pressure ([4]; 326.2 K, Crystal): 0.00109 ± 8e-05 kPa
- vapor or sublimation pressure ([4]; 328.2 K, Crystal): 0.00137 ± 0.0001 kPa
- vapor or sublimation pressure ([4]; 333.3 K, Crystal): 0.0023 ± 0.00017 kPa
- vapor or sublimation pressure ([4]; 338.3 K, Crystal): 0.00364 ± 0.00026 kPa
- vapor or sublimation pressure ([4]; 343.1 K, Crystal): 0.0056 ± 0.0004 kPa
- vapor or sublimation pressure ([4]; 348.3 K, Crystal): 0.00907 ± 0.00066 kPa
- vapor or sublimation pressure ([4]; 353 K, Crystal): 0.01426 ± 0.001 kPa
- vapor or sublimation pressure ([4]; 355.7 K, Crystal): 0.0165 ± 0.0012 kPa
- vapor or sublimation pressure ([4]; 358.4 K, Crystal): 0.02207 ± 0.0016 kPa
- vapor or sublimation pressure ([4]; 360.2 K, Crystal): 0.0253 ± 0.0018 kPa
- Normal melting temperature ([4]; Crystal): 89.0 ± 0.5 °C
